From patent US20250147039A1, “Compounds for complexation of rare earth elements and/or s-, p-, d- block metals, their coordination compounds, peptide conjugates, method of their preparation and use thereof” (USTAV ORGANICKE CHEMIE A BIOCHEMIE AV CR V.V.I., priority 2021, published 2025)

How the values were obtained:
[1] = Formation of 1,5-cz-[M(Lig)] from Lig and M^III ions (metal dependent click-zip) (Charts 4, 5); type: physicochemical; details: MOPS/NaOH buffer pH 7.0, TD728, TD827 in 50% i-PrOH; for conversion to 1,5-cz-[M(Lig)], Y^III: TD714 sum of two diastereoisomers
[2] = Formation of 1,5-cz-[Ln(Lig)] from Lig and Ln^III ions (metal dependent click-zip), MOPS/NaOH buffer pH 7.0, analytical HPLC (Charts 1, 2); details: MOPS/NaOH buffer pH 7.0

Structure (SMILES)	conversion to 1,5-cz-[M(Lig)], Sc^III ([1]; 1 week at 80° C.) [%]	conversion to 1,5-cz-[M(Lig)], Y^III ([1]; 1 week at 80° C.) [%]	conversion to 1,5-cz-[M(Lig)], Sc^III ([1]; 1 hour at 80° C.) [%]	conversion to 1,5-cz-[M(Lig)], Y^III ([1]; 1 hour at 80° C.) [%]	conversion to 1,5-cz-[Ln(Lig)], Ce^III ([2]; after 1 week at 80° C.) [%]	conversion to 1,5-cz-[Ln(Lig)], Ce^III ([2]; after 1 hour at 80° C.) [%]	conversion to 1,5-cz-[Ln(Lig)], Dy^III ([2]; after 1 week at 80° C.) [%]	conversion to 1,5-cz-[Ln(Lig)], Dy^III ([2]; after 1 hour at 80° C.) [%]	conversion to 1,5-cz-[Ln(Lig)], Er^III ([2]; after 1 week at 80° C.) [%]	conversion to 1,5-cz-[Ln(Lig)], Er^III ([2]; after 1 hour at 80° C.) [%]	conversion to 1,5-cz-[Ln(Lig)], Eu^III ([2]; after 1 week at 80° C.) [%]	conversion to 1,5-cz-[Ln(Lig)], Eu^III ([2]; after 1 hour at 80° C.) [%]	conversion to 1,5-cz-[Ln(Lig)], Gd^III ([2]; after 1 week at 80° C.) [%]	conversion to 1,5-cz-[Ln(Lig)], Gd^III ([2]; after 1 hour at 80° C.) [%]	conversion to 1,5-cz-[Ln(Lig)], Ho^III ([2]; after 1 week at 80° C.) [%]	conversion to 1,5-cz-[Ln(Lig)], Ho^III ([2]; after 1 hour at 80° C.) [%]	conversion to 1,5-cz-[Ln(Lig)], La^III ([2]; after 1 week at 80° C.) [%]	conversion to 1,5-cz-[Ln(Lig)], La^III ([2]; after 1 hour at 80° C.) [%]	conversion to 1,5-cz-[Ln(Lig)], Lu^III ([2]; after 1 week at 80° C.) [%]	conversion to 1,5-cz-[Ln(Lig)], Lu^III ([2]; after 1 hour at 80° C.) [%]	also measured
[N-]=[N+]=NCc1cccc(CN2CCN(CC(=O)O)CCN(Cc3cccc(C#CC4CC4)n3)CCN(CC(=O)O)CC2)n1 [TD943]	5	74	0	1	4	0	65	1	88	2	36	0	40	0	77	2	5	0	97	5	conversion to 1,5-cz-[Ln(Lig)], Nd^III ([2]; after 1 week at 80° C.): 16%; conversion to 1,5-cz-[Ln(Lig)], Nd^III ([2]; after 1 hour at 80° C.): 0%; conversion to 1,5-cz-[Ln(Lig)], Pr^III ([2]; after 1 week at 80° C.): 10%; conversion to 1,5-cz-[Ln(Lig)], Pr^III ([2]; after 1 hour at 80° C.): 0%; conversion to 1,5-cz-[Ln(Lig)], Sm^III ([2]; after 1 week at 80° C.): 29%; conversion to 1,5-cz-[Ln(Lig)], Sm^III ([2]; after 1 hour at 80° C.): 0%; conversion to 1,5-cz-[Ln(Lig)], Tb^III ([2]; after 1 week at 80° C.): 56%; conversion to 1,5-cz-[Ln(Lig)], Tb^III ([2]; after 1 hour at 80° C.): 1%; conversion to 1,5-cz-[Ln(Lig)], Tm^III ([2]; after 1 week at 80° C.): 94%; conversion to 1,5-cz-[Ln(Lig)], Tm^III ([2]; after 1 hour at 80° C.): 3%; conversion to 1,5-cz-[Ln(Lig)], Yb^III ([2]; after 1 week at 80° C.): 97%; conversion to 1,5-cz-[Ln(Lig)], Yb^III ([2]; after 1 hour at 80° C.): 3%
[N-]=[N+]=NCc1cccc(CN2CCN(CC(=O)O)CCN(Cc3cccc(C#Cc4ccccc4)n3)CCN(CC(=O)O)CC2)n1 [TD944]	4	63	0	1	3	0	51	0	84	1	19	0	23	0	68	1	4	0	94	2	conversion to 1,5-cz-[Ln(Lig)], Nd^III ([2]; after 1 week at 80° C.): 8%; conversion to 1,5-cz-[Ln(Lig)], Nd^III ([2]; after 1 hour at 80° C.): 0%; conversion to 1,5-cz-[Ln(Lig)], Pr^III ([2]; after 1 week at 80° C.): 6%; conversion to 1,5-cz-[Ln(Lig)], Pr^III ([2]; after 1 hour at 80° C.): 0%; conversion to 1,5-cz-[Ln(Lig)], Sm^III ([2]; after 1 week at 80° C.): 16%; conversion to 1,5-cz-[Ln(Lig)], Sm^III ([2]; after 1 hour at 80° C.): 0%; conversion to 1,5-cz-[Ln(Lig)], Tb^III ([2]; after 1 week at 80° C.): 37%; conversion to 1,5-cz-[Ln(Lig)], Tb^III ([2]; after 1 hour at 80° C.): 0%; conversion to 1,5-cz-[Ln(Lig)], Tm^III ([2]; after 1 week at 80° C.): 93%; conversion to 1,5-cz-[Ln(Lig)], Tm^III ([2]; after 1 hour at 80° C.): 1%; conversion to 1,5-cz-[Ln(Lig)], Yb^III ([2]; after 1 week at 80° C.): 95%; conversion to 1,5-cz-[Ln(Lig)], Yb^III ([2]; after 1 hour at 80° C.): 2%
